Laboratory results from patent US9458448B2, “Manufacturing method for silica encapsulated single-enzyme nanoparticles and single-enzyme nanoparticles manufactured by means of method” (Korea University Research and Business Foundation, priority 2011, dated 2016).

Assays:
Format in all cases: biochemical
[1] = tested on: α-chymotrypsin (CT), free enzyme (free CT); test: Kinetic constants by hydrolysis of MUTMAC, free enzyme (Free-CT)
Method: (§1) The kinetic constants of SEEN-CT (Example 1), RM-SEEN-CT (Comparative Example 1) and free enzyme (free CT) were measured by hydrolysis of MUTMAC. The values were obtained by nonlinear regression based on the least square method.

[2] = tested on: α-chymotrypsin (CT), silica encapsulated single-enzyme nanoparticles SEEN-CT (Example 1); test: Kinetic constants by hydrolysis of MUTMAC, silica encapsulated single-enzyme nanoparticles SEEN-CT (Example 1)
Method: Silica encapsulated single-enzyme nanoparticles were prepared using α-chymotrypsin (CT) as schematically described in FIG. 1. Specifically, the synthesis of the silica encapsulated single-enzyme nanoparticles began with dissolution of the enzyme in an aqueous solution with an organic solvent. CT was dissolved in a 10 mM Bis-Tris propane (pH 7.8) buffer containing 1% isopropanol and 2 mM calcium chloride to a concentration of 1 mg/mL. Subsequently, 2 mM AOT added to hexane of the same volume was mixed with the enzyme solution. After stirring at room temperature for 15 minutes, phase separation was conducted through centrifugation. Only the hexane layer containing the solubilized enzyme was separated and then hexane was evaporated using nitrogen gas to adjust the concentration to 1 mg/mL.
Next, a mixture solution of TMOS:hexane (1:1) was added to the enzyme-containing hexane solution with a volume of 1% thereof and stored at 4° C. for 17 hours.
Then, after storing for 1.5 hours at room temperature and adding a 200 mM sodium phosphate buffer (pH 7.8) corresponding to 2 times the volume of the hexane, the mixture was stirred at 250 rpm for 10 minutes. After phase separation occurred through centrifugation, only the aqueous solution layer was separated. Then, impurities were filtered off through a 100-nm filter.
Subsequently, the enzyme extracted into the aqueous solution phase was stored at 4° C. for 3 days. After the 3 days, unreacted TMOS and AOT molecules were removed while replacing with a 10 mM sodium phosphate buffer using an ultrafiltration device. The as-synthesized silica encapsulated single-enzyme nanoparticles were stored at 4° C. until use.
as §1

[3] = tested on: α-chymotrypsin (CT), reverse micelle-silica encapsulated single-enzyme nanoparticles RM-SEEN-CT (Comparative Example 1); test: Kinetic constants by hydrolysis of MUTMAC, reverse micelle-silica encapsulated RM-SEEN-CT (Comparative Example 1)
Method: Hexane containing 100 mM AOT as surfactant, and a small amount of a 10 mM Bis-Tris propane buffer containing enzymes were added. The amount of the added aqueous solution was adjusted such that its molar concentration was 20 times that of AOT. Then, the enzymes were solubilized to hexane by stirring for 10 minutes. The procedure following the solubilization of the enzymes in hexane was similar to Example 1.
In the reverse micelle method, which was employed for comparison with the method for manufacturing silica encapsulated single-enzyme nanoparticles according to the present disclosure, condensation of the silica precursor proceeds faster because more water molecules are present around the enzyme. As a result, a thicker silica network will be formed and the Michaelis-Menten constant may increase.
as §1

[4] = nonlinear regression, least square method
[5] = SEEN-CT, hydrolysis of MUTMAC, nonlinear regression, least square method
[6] = RM-SEEN-CT, hydrolysis of MUTMAC, nonlinear regression, least square method

kcat/Km [1]: 7.6 ± 0.2 × 10^5M^−1s^−1
Km [1, 4]: 41.8 ± 0.1 µM
kcat [1, 4]: 31.8 ± 0.8 s⁻¹
decrease of catalytic efficiency, kcat/Km, as compared to free CT ([2]; SEEN-CT as compared to free CT): 21%
kcat/Km ([2]; SEEN-CT, hydrolysis of MUTMAC): 6.0 ± 0.1 × 10^5M^−1s^−1
Km [2, 5]: 42.4 ± 0.1 µM
kcat [2, 5]: 25.4 ± 0.1 s⁻¹
decrease of catalytic efficiency, kcat/Km, as compared to free CT ([3]; RM-SEEN-CT as compared to free CT): about 48%
kcat/Km ([3]; RM-SEEN-CT, hydrolysis of MUTMAC): 3.9 ± 0.1 × 10^5M^−1s^−1
Km [3, 6]: 76.8 ± 3.6 µM
kcat [3, 6]: 30.3 ± 0.8 s⁻¹
Compound: Cc1cc(=O)oc2cc(OC(=O)/C=C/c3ccc([N+](C)(C)C)cc3)ccc12 [MUTMAC]
